This passage reports melting point results from a melting point compilation (Tetko et al.; mined from patent text by program, amines drawn as free bases though some values may be those of a salt).

What is called melting point is the temperature of the solid-liquid transition.

SMILES strings stand for the structures.

`Cc1nc2cc(OCCCN3CC=C(c4c[nH]c5ccc(C#N)cc45)CC3)ccc2s1` gave a melting point of 263 to 265 °C.
To `CCC(Sc1ccc(OC)c(Cl)c1Cl)C(=O)O` (stereo unspecified) belongs 143 to 145 °C; to `O=C(Oc1ccc(Cl)cc1)c1cccc(Cl)c1`, 72 °C; to `O=C1NC(=O)C(Cc2ccc(OCCON=Cc3ccccn3)cc2)S1` (stereo unspecified), 161 to 163 °C.
Take `O=C1Cc2ccccc2C(c2c(F)cccc2Cl)N1` (stereo unspecified): the melting point fell in the range of 249 to 252 °C.
Turning to `COc1cc2c(cc1C(F)(F)F)N(C(=O)Nc1cncc(-c3cnccc3C)c1)CC2`, the melting point fell in the range of 125 to 128 °C.
As to `CCCC(=O)C1=C(O)CC(c2cccnc2)CC1=O` (stereo unspecified), the melting point amounted to 72 °C.
`O=[N+]([O-])c1ccc(C=Cc2ccc(OCCCCCCO)cc2)cc1` showed a melting point of 118 °C.
As for `CC(C)(C)OC(=O)N[C@@H](Cc1cc(F)cc(F)c1)[C@H]1CO1`, the figure is 99 °C; as for `COc1cc(C(C)=O)ccc1OCCCN1CCC(c2noc3ccc(F)cc23)CC1`, 103 to 105 °C; as for `O=Cc1cc(-c2ccc(O)cc2)c2occc2c1`, 154 to 155 °C.
As to `CN=C(NC#N)Nc1ccc2c(c1)CCC1(C)CC(=O)NN=C21` (stereo unspecified), the melting point is 269 °C.
Turning to `COc1c(C(C)C)cc(S(N)(=O)=O)c(C)c1C(=O)NCC1CCCN1C1CCCC1` (stereo unspecified), the melting point came out at 196 °C.
As for `CCN1CCC2(c3cccc(O)c3)Cc3[nH]c(C(=O)N(CC)CC)c(C)c3CC2C1` (stereo unspecified), the figure is 221 to 223 °C; as for `Clc1ccc(-c2nc(Cl)cc(Cl)n2)cc1`, 120 to 121 °C.
To `Cc1nc(Nc2ccc(F)cc2)nc(Br)c1C` belongs 123 °C.
The compound `COc1cccc2c1C(=O)C(=O)N2` displayed a melting point of 198 to 200 °C.
`Cc1cc(-c2nnn(C)n2)cc(C)c1OCCCC(O)c1cc2cccnc2[nH]1` (stereo unspecified) registered a melting point of 166 to 169 °C.
Compound `COc1cccc(C(N)c2sccc2S(=O)(=O)Nc2onc(C)c2Br)c1` (stereo unspecified) returned a melting point of 70 to 73 °C.
For `CC1CNCCNCCNCCNCCN1` (stereo unspecified), the melting point is 73 to 75 °C.
To `COc1ccc(-c2c3ccccc3cc3sc4ccccc4c23)cc1C#N` belongs 230 to 232 °C; to `COC(=O)c1ccc(=O)n(-c2ccccc2)c1`, 100 to 105 °C.
For `CCCc1c[nH]c(CCC(=O)N(C)C)c1`, the melting point lay in the range of 71 to 72 °C.
For `COCCSc1ccccc1S(N)(=O)=O`, the melting point is 127 to 130 °C.
To `Cc1ccc2c(c1)c1c(n2C(=O)c2ccc(Cl)cc2)CCC(C(=O)O)C1` (stereo unspecified) belongs 211 to 214 °C.
The compound `O=C1c2cccc3cc4ccccc4c(c23)C(=O)N1CCCNCCNCCCN1C(=O)c2cccc3cc4ccccc4c(c23)C1=O` came in with a melting point of 180 °C.
Regarding `COC(=O)c1ccc2c(=O)n(CC(C)C)c(CNC(=O)OC(C)(C)C)c(-c3cccc(F)c3)c2c1`, the melting point is 206 to 208 °C.
As to `O=c1[nH]nc(-c2ccc3ccccc3c2)o1`, the melting point lay in the range of 197 to 199 °C.
To `CCCCCCCCCCCCCCC(O)=S` belongs 60 to 62 °C.
In turn, `CS(=O)(=O)c1ccc(C(CC2CCCC2)C(=O)Nc2nc3ccccc3s2)cc1C#N` (stereo unspecified) registered a melting point of 115 to 118 °C.
For `O=C(CP(=O)(O)CCCCc1ccccc1)OCc1ccccc1`, the melting point is 64 to 67 °C.
On to `Cc1cc(CC(=O)NCc2cccc3c2C(=O)N(C2CCC(=O)NC2=O)C3=O)oc1C` (stereo unspecified), for which the melting point was in the range of 221 to 223 °C.
In the case of `C=CCNC(=S)Nc1cc(=N)n2c(n1)SCC2`, the melting point lay within 225 to 226 °C.
To `COc1cc(N)c(Cl)cc1C(=O)NCC1CCN(CCCCCOc2cccc3ccccc23)CC1` belongs 91 to 93 °C.
To `O=C(CN1CCCCC1)Nc1ccc(NC(=O)Nc2ccc(N(CCCl)CCCl)cc2)cc1` belongs 227 to 229 °C; to `O=C1C(c2ccccc2)c2cccc3c2N1CCN3` (stereo unspecified), 168 to 171 °C; to `CCOC(=O)c1ccc(-c2nc(O)c(C)s2)cc1`, 207 to 208 °C.
As for `CCOC(=O)c1c(Cl)nc2ccsc2c1Cl`, the figure is 73 °C; as for `CC(C)N1CC(CN(C)C)N(C)c2ccccc2C1=O` (stereo unspecified), 93 to 95 °C.
`O=C(Cn1ccnc1)c1ccccc1O`: the melting point fell in the range of 195 to 200 °C.
`CC1(C)[C@H]2CC=C(CCOCC(=O)O)[C@@H]1C2` displayed a melting point of 78 to 80 °C.
As for `Oc1ccccc1-c1noc2ccsc12`, the figure is 121 °C; as for `NS(=O)(=O)c1ccccc1C(=O)c1cccs1`, 122 to 125 °C.
As for `CCn1cc(C(=O)O)c(=O)c2cc(F)c(N3CC(C)(NC(=O)C(F)(F)F)C3)c(F)c21`, the figure is 196 to 210 °C; as for `CSC(=Nc1ccccc1)N(c1ccccc1)c1nc(C)cc(C)n1`, 101 to 103 °C; as for `CC1(OC(=O)C=CC2C(C(=O)OC(C#N)c3cccc(Oc4ccccc4)c3)C2(C)C)CCC1` (stereo unspecified), 78 °C.
To `O=[N+]([O-])c1cnn(-c2c(Cl)cc(C(F)(F)F)c(Cl)c2Cl)c1Br` belongs 97 to 99 °C; to `CCCCc1nc2c(N)nc3ccccc3c2n1NCc1ccccc1`, 159 to 160 °C.
The compound `CC(=O)Nc1ccc(N=O)cc1` came in with a melting point of 179 to 180 °C.
As for `CN1CCN(c2cccc3c2C[C@H](NC(=O)c2ccccc2OS(C)(=O)=O)CC3)CC1`, the figure is 144 to 145 °C; as for `CCCn1c(=O)c(C=O)c2n(c1=O)CCCS2`, 153 to 154 °C; as for `Cc1nc[nH]c1CSCCN=C(NC#N)NCCCCCCCN`, 84 to 87 °C.
Compound `CC(C)[C@H](NC(=O)[C@@H]1CCCN1C(=O)OCc1ccccc1)C(=O)O` displayed a melting point of 132 to 134 °C.
The compound `CC(C)C(S)C(=O)NC1(C(=O)NC(Cc2ccc(-c3ccoc3)nc2)C(=O)O)CCCC1` (stereo unspecified) had a melting point of 52 to 55 °C.
Turning to `CS(=O)(=O)c1cc(F)cc2c3c(n(Cc4ccc(Cl)cc4)c12)[C@@H](CC(=O)O)CC3`, the melting point came out at 175 °C.
`CCOC(=O)c1c[nH]c2c(C#N)c(CCCNC)nn2c1=O` came in with a melting point of 285 to 287 °C.
Regarding `CCOC(=O)Cc1c(-c2cccnc2)c2cc(CN3CCN(c4ccccc4)CC3)c(Cl)cc2oc1=O`, the melting point fell in the range of 153 to 157 °C.
Consider `O=C(Nc1cccc2c(=O)cc(C(=O)O)oc12)c1ccc2c(c1)CC(COCc1ccccc1)O2` (stereo unspecified), for which the melting point lay within 184 to 188 °C.
As for `Clc1ccc(C2Cc3cnc(Nc4ccc(CCN5CCOCC5)cc4)nc3-c3ccccc32)cc1Cl` (stereo unspecified), the figure is 166 to 167 °C; as for `O=C(NCC(=O)c1ccco1)c1ccc(F)cc1`, 153 to 155 °C.
In turn, `O=C(Cc1ccc(Br)cc1)c1ccc(Cl)cc1` gave a melting point of 123 °C.
In turn, `Oc1cccc2c1nc(-c1c(F)cccc1F)n2Cc1c(F)cccc1F` registered a melting point of 257 to 259 °C.
In turn, `OCc1[nH]c(=S)n(C2CCc3ccccc3C2)c1CO` (stereo unspecified) came in with a melting point of 199 to 200 °C.
To `O=C(O)COc1cccc2c1CCC(COC(=O)N(c1ccccc1)c1ccccc1)C2` (stereo unspecified) belongs 137 to 142 °C.
The compound `COc1ccc(N)c(OC)c1-c1ccc(C[C@H](NC(=O)c2c(Cl)cccc2Cl)C(=O)O)cc1` registered a melting point of 231 to 232 °C.
To `CN(C)C=Cc1cc(-n2cncn2)ncc1[N+](=O)[O-]` belongs 225 to 228 °C; to `O=c1c2ccccc2cc(N2CCCCC2)c2ccccc12`, 103 to 105 °C.
Turning to `CCOC(=O)C1=C(COCc2nc(CCN3C(=O)c4ccccc4C3=O)cs2)NC(C)=C(C(=O)OC)C1c1ccccc1Cl` (stereo unspecified), the melting point was 156 to 157 °C.
`N#Cc1c(N2CCCCC2)c(C(=O)OCCO)c2ccccn2c1=O` came in with a melting point of 140 to 141 °C.
In the case of `CC(C)Oc1cccc(CSc2nc(N)cc(Cl)n2)c1`, the melting point is 71 °C.
Compound `CCOC(=O)c1nc(-c2ccc(Cl)cc2)c(F)c(N)c1Cl` had a melting point of 103 to 104 °C.
In turn, `O=C(OCc1cc(OCCCBr)cc(OCCCBr)c1)c1ccccc1` came in with a melting point of 85 to 87.5 °C.
`CCCCNC(=O)c1nc2cnn(CC)c2nc1C` registered a melting point of 64 to 65 °C.
In turn, `CN(CCCNC(=O)c1cccc2nc3ccc(Cl)cc3nc12)CCCNC(=O)c1cccc2nc3ccc(Cl)cc3nc12` showed a melting point of 210 to 212 °C.
On to `O=c1[nH]c2cc(Cl)c(Cl)cc2n1CCCO`, for which the melting point came out at 175 °C.
In turn, `CCOC(=O)/C(=N/OC)c1ccc(OCCOc2ccc3ccccc3c2)s1` registered a melting point of 132 to 134 °C.
Consider `COc1ccc2c(c1)C(C(=O)N(Cc1ccc(Br)cc1)c1ccc(C(C)C)cc1)CCC2` (stereo unspecified), for which the melting point stood at 85 °C.
`c1cc(OCC2CO2)c2nsnc2c1` (stereo unspecified): the melting point fell in the range of 65 to 67 °C.
Regarding `CC(=O)OCC1c2c(c3ccccc3c3ccccc23)-c2c1c1ccccc1c1ccccc21`, the melting point lay in the range of 209 to 210 °C.
As for `CNC(=O)Nc1snc(C)c1C(=O)OC`, the figure is 236 to 237 °C; as for `Cc1c(C(=O)Nc2ccc(N3CCC(N4CCOCC4)CC3)c(C(N)=O)c2)cnn1-c1ccc(Cl)cc1`, 270 °C.
As for `O=C(O)Cc1c[nH]c2cc(C3CC3)nn2c1=O`, the figure is greater than 300 °C; as for `Cc1cc(-c2cnn3c(C(F)(F)F)cc(-c4ccc(Cl)cc4)nc23)cc(C)n1`, 256 °C.
As for `Cc1sc(-c2cccnc2)nc1O`, the figure is 201 to 202 °C; as for `CCCCOC(=O)c1ccccc1SN(C(=O)NC(=O)c1c(F)cccc1F)c1ccc(C(F)(F)F)cc1`, 79 to 81 °C.
`COc1c(Cl)ccc(-c2nc(OC)c3c(ncn3C)n2)c1F` came in with a melting point of 191 to 192 °C.
As for `CCCCCCCCOc1ccc2cc(C(=O)O)ccc2c1`, the melting point is 150 to 153 °C.
To `Cc1c(-c2c(F)cc(Cl)c(=O)n2C)nn(C)c1C#N` belongs 190 to 191 °C; to `O=C1C2=NCC3(CCCC3)CN2c2ccc(S(=O)(=O)N3CCCC3CN3CCOCC3)cc21` (stereo unspecified), 163 to 164 °C.
Turning to `COc1c(CO)n(C)c(=O)c2ccc(Cl)cc12`, the melting point was 195 to 196 °C.
`CN1CCN(c2ccc(Nc3ncc4cc5ccccc5n4n3)cc2)CC1` gave a melting point of 217 to 222 °C.
